Key:
[1] = target: T1, Kinesin-like protein KIF2C (Homo sapiens) (UniProt Q99661); test: Inhibition of MCAK at 10 uM by puruvate kinsase-lactate dehydrogenase detection system
T1 sequence (whole entry): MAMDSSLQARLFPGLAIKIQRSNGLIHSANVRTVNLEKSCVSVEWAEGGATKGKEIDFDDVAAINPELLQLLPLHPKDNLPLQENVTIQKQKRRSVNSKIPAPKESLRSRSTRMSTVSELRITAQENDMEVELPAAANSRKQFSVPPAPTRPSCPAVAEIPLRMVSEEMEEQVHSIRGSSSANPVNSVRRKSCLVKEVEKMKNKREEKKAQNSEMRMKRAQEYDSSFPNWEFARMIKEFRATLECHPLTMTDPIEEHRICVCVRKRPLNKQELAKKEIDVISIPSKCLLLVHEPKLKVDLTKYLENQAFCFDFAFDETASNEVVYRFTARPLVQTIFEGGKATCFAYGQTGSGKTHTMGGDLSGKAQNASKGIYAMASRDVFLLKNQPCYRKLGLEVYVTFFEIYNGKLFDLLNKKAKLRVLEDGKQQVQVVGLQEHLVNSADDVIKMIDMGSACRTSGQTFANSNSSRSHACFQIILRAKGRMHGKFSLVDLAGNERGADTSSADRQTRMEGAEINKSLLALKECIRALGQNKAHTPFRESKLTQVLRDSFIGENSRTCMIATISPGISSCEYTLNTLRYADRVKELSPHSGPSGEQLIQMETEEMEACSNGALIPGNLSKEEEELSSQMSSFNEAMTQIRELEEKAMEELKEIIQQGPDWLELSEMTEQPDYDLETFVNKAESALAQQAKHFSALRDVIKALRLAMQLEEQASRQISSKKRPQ

[2] = target: T2, Kinesin-like protein KIF11 (Homo sapiens) (UniProt P52732); test: Inhibition of Eg5 at 10 uM by puruvate kinsase-lactate dehydrogenase detection system
T2 sequence (whole entry): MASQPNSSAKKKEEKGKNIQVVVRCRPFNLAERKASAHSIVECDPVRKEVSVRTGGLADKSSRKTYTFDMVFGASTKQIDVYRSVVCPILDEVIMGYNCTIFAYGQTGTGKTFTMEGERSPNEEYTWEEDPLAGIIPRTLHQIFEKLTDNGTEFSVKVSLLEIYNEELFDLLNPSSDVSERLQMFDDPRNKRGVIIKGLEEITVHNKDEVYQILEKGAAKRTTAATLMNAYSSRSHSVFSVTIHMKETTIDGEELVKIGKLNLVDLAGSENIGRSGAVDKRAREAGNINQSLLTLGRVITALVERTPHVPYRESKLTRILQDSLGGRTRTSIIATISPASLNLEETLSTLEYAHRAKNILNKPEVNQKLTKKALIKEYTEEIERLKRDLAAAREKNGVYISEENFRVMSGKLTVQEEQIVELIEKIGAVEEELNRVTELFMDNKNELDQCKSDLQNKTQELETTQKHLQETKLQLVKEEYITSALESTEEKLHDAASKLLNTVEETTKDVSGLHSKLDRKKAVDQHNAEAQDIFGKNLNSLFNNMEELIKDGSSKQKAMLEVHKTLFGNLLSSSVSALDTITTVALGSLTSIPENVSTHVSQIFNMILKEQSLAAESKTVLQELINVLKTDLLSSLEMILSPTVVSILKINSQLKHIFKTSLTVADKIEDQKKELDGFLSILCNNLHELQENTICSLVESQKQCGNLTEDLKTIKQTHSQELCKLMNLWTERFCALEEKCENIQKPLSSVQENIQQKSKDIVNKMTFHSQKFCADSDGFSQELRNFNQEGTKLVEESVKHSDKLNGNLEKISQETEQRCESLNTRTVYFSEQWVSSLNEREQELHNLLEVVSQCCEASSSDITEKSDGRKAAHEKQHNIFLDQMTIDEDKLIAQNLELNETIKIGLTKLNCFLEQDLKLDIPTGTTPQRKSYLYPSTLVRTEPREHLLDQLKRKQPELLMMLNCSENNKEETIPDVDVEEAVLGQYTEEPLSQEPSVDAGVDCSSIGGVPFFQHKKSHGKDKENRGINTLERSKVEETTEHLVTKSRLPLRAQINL

[3] = target: T3, Kinesin-like protein KIF23 (Homo sapiens) (UniProt Q02241); test: Inhibition of MKLP1 at 10 uM by puruvate kinsase-lactate dehydrogenase detection system
T3 sequence (whole entry): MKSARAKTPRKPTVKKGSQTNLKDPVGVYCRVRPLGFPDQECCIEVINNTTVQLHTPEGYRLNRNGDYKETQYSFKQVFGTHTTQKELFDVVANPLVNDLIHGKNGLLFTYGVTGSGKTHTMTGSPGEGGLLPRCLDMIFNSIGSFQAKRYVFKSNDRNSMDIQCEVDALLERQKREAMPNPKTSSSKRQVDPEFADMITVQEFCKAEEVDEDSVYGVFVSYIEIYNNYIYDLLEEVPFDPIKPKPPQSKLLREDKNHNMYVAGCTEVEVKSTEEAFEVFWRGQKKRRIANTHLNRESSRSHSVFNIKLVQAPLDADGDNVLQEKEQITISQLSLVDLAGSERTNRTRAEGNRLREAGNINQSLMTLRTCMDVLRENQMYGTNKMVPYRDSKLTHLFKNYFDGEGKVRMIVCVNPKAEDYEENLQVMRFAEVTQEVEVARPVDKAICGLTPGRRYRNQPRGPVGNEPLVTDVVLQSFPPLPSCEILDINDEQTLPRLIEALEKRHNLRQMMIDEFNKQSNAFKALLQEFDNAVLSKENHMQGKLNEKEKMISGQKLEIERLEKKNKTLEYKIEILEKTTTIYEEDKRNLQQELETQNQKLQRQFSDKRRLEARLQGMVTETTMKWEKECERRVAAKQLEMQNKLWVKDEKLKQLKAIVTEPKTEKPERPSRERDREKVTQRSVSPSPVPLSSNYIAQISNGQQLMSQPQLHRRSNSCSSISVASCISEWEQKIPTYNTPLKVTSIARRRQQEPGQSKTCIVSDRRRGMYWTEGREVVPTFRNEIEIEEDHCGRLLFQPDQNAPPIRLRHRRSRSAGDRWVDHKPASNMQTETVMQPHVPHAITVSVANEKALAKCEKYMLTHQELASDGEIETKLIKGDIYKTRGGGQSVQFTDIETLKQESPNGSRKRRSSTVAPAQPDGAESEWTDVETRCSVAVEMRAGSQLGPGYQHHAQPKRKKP

[4] = target: Kinesin-like protein KIF1A (Homo sapiens) (UniProt Q12756); test: Inhibition of Kif1A at 10 uM by puruvate kinsase-lactate dehydrogenase detection system
Sequence of Kinesin-like protein KIF1A (Homo sapiens) (Q12756 whole entry): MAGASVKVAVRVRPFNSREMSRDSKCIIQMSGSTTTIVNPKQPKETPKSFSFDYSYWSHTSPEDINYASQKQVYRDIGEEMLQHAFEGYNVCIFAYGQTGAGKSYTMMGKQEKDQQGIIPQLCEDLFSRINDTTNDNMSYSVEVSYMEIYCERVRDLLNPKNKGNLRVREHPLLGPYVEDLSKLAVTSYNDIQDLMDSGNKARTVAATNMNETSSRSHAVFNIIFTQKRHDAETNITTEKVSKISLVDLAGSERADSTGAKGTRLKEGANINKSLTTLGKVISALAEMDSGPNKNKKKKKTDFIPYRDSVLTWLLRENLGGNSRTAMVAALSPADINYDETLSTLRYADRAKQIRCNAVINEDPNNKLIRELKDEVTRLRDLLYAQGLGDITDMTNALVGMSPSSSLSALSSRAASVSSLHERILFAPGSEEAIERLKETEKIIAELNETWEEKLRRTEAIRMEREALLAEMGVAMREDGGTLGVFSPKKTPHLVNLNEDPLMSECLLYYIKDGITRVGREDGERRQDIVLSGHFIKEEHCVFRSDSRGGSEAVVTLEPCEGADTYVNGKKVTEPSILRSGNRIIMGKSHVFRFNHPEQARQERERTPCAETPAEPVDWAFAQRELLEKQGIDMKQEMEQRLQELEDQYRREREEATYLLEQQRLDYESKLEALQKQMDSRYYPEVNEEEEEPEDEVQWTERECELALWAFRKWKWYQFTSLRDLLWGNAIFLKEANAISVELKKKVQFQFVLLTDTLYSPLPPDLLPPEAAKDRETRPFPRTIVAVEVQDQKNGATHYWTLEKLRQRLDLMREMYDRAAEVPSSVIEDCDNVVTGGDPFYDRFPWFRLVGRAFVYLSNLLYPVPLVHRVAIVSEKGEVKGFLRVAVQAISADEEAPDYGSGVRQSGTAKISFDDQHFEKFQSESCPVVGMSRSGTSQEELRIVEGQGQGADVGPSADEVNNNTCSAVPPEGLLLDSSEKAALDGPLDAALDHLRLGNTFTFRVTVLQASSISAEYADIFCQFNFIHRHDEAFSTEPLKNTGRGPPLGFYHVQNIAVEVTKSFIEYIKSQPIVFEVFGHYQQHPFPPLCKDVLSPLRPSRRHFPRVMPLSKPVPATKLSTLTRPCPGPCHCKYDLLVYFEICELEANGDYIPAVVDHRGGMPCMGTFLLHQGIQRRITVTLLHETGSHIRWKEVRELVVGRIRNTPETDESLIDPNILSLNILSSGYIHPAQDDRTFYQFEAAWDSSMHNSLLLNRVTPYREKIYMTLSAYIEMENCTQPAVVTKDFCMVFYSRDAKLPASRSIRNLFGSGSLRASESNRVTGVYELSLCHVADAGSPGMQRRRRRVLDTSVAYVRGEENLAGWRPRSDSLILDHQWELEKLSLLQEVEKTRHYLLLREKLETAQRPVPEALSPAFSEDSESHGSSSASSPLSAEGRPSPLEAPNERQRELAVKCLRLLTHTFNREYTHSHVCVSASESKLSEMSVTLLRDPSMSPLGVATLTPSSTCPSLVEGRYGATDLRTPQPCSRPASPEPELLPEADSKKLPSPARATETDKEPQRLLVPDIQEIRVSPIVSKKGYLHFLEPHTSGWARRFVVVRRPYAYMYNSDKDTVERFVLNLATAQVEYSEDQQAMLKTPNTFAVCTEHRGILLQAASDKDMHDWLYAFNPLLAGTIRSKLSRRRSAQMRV

SMILES: Cc1ccc(C(=O)N(CCCN)[C@@H](c2nc3cc(Cl)ccc3c(=O)n2Cc2ccccc2)C(C)C)cc1
- inhibition [1]: 8.2%
- inhibition [2]: 99.6%
- inhibition [3]: 7.1%
- inhibition [4]: 8.2%

SMILES: NC(=O)Nc1ccc(-c2ccc(C(F)(F)F)cc2)cc1F
- inhibition [1]: 6.9%
- inhibition [2]: 99.4%
- inhibition [3]: 9.4%
- inhibition [4]: 12.8%

SMILES: O=C1CCc2cc(-c3ccc(C(F)(F)F)cc3)ccc2N1
- inhibition [1]: 8.4%
- inhibition [2]: 99.3%
- inhibition [3]: 7.7%
- inhibition [4]: 8.9%

— ChEMBL document CHEMBL1221208, “ATP-competitive inhibitors of the mitotic kinesin KSP that function via an allosteric mechanism” (Nat Chem Biol, 2007)
